From article PMC10508264, “Exploring the antioxidant, antimicrobial, cytotoxic and biothermodynamic properties of novel morpholine derivative bioactive Mn(II), Co(II) and Ni(II) complexes – combined experimental and theoretical measurements towards DNA/BSA/SARS-CoV-2 3CL^Pro” (RSC Medicinal Chemistry, 2023)

Columns and labels:
[1] = system: Bacillus cereu; experiment: Agar disc diffusion, strain G; type: cell-based; set-up: Inhibition%: concentration or dose not given beside the values; conditions: for Diameter of clear zone inhibition: control 6 mm
[2] = system: Salmonella enterica serovar typhi; experiment: Agar disc diffusion, strain B; type: cell-based; conditions: for Diameter of clear zone inhibition: control 6 mm
[3] = system: CT-DNA; experiment: DNA binding by cyclic voltammetry; conditions: for Kb, method I, Oxi: oxidation; for Kb, method I, red: reduction
Experimental: The changes in peak current as well as peak potential were monitored while concentrations of CT-DNA were increased (0–10 μM) in each sample solution.[13,36]
The CV approach is one of the most important methods for evaluating the binding mechanism of a DNA–complex adduct. The CV properties of all test samples in the presence and absence of DNA were executed at a scan rate (v) of 0.1 V s^−1 with a potential range of +2 to −2 in a Tris–HCl (5 mM)/NaCl (50 mM) (pH = 7.2) solution. The M^1+/M^2+ redox couple is caused by complexes that reveal a single anodic and cathodic peak. […] (Fig. S31 ^† and Table 6).
ΔEP is peak-to-peak separation = (EPa − EPc); E° (or E1/2) denotes the formal electrode potential = 1/2(EPa + EPc); [drawing 41] [drawing 42] and [drawing 43] represent the formal electrode potential of the M^1+/M^2+ couple in the bound and free forms, respectively. [drawing 44] = +19 mV (HL), +18 mV (1), +16 mV (2), +16 mV (3). Ipa is anodic peak current, Ipc is cathodic peak current. K^1+ is the binding constant of the reduction process, K^2+ is the binding constant of the oxidation process. S represents the binding site size of base pairs (bp) with a molecule of complex, scan rate is 100 mV s^−1, binding constant (Kb) values observed from the linear plots of log(1/[DNA]) versus log(I/I0 − I) for oxidation and reduction, (I0 − IDNA)/IDNA = Cp/Cfversus [DNA] and I^2p versus(I^2po − I^2p)/[DNA] by methods I, II and III, respectively.
While the substances often bind to DNA through intercalation, the peak potential shifts in a positive direction. When the compounds bind to DNA through minor or major grooves or electrostatic attractions, the peak potential shifts occur in a negative direction. It was observed that the consistent movement of peak potential shifts in the positive direction during increments of DNA with test substances. The binding mode in compound–DNA adducts has been described as primarily intercalation (Fig. S31 ^†), and it is also attributed to the presence of 2,2′-bipyridine and morpholine fused aromatic planar systems in mixed ligand complexes, which can create inclusion through intercalation due to hydrophobic and π–π stacking interactions in the DNA base pairs. It is also supported by the evaluated outcomes from UV-vis spectral, emission titration, viscometric, and biothermodynamic properties. Furthermore, the observed values of Kb, S, and the ratio of binding constants (K^1+/K^2+) for M^1+/M^2+ couple systems further confirmed the binding affinity via intercalation. Also, the subsequent eqn (24)–(35) are applied to determine the above parameters.[88,89]Eqn (24) is acquired from modification of the Stern–Volmer eqn (14) (Table 6). The Kb values for all samples were estimated from the linear regression plot of log(1/[DNA]) versus log(I/I0 − I) by method I (Fig. S32 ^† and Table 6). Eqn (26) was obtained from revision of eqn (25). Also, binding site size (S, bp) and Kb are estimated from eqn (30) from the linear regression plot of (Cp/Cf) versus [DNA] by method-II[90–92] (Fig. S33 ^† and Table 6). In addition, base-pair sites with a molecule of the compound are referred to as “binding site size” (S), and the evaluated S values were found in the range from 0.1718 to 0.4599 bp. […] In the Nernst eqn (31) and (32) for the galvanic cell, [drawing 58] , the formal electrode potentials of the M^1+/M^2+ couple in their bound and free forms are E1/2 or [drawing 59] and [drawing 60] , respectively. As a result of the variable binding state [M^1+/M^2+] and the delayed mass transfer of test compounds that interacted with DNA fragments, the addition of DNA to the compound solution enabled a change in the redox potential to a higher positive direction and a drop in both anodic and cathodic peak currents. In particular, the equilibrium of M^1+/M^2+ is influenced by electrostatic or hydrophobic interactions.

Row | SMILES | Inhibition% [1] | Diameter of clear zone inhibition [1] | Inhibition% [2] | Diameter of clear zone inhibition [2] | Kb, method II [3] | Kb, method III [3] | Kb, method I, Oxi [3] | Kb, method I, red [3]
1 | [Mn+2].[O-]c1ccccc1N=Cc1ccc(N2CCOCC2)cc1.[O-]c1ccccc1N=Cc1ccc(N2CCOCC2)cc1.c1ccc(-c2ccccn2)nc1 [(1)] | 57% | 14 mm | 50% | 12 mm | 14873 M⁻¹ | 10713 M⁻¹ | 10020 M⁻¹ | 7890 M⁻¹
2 | [Co+2].[O-]c1ccccc1N=Cc1ccc(N2CCOCC2)cc1.[O-]c1ccccc1N=Cc1ccc(N2CCOCC2)cc1.c1ccc(-c2ccccn2)nc1 [(2)] | 54% | 13 mm | 40% | 10 mm | 41119 M⁻¹ | 15999 M⁻¹ | 14210 M⁻¹ | 11330 M⁻¹
3 | [Ni+2].[O-]c1ccccc1N=Cc1ccc(N2CCOCC2)cc1.[O-]c1ccccc1N=Cc1ccc(N2CCOCC2)cc1.c1ccc(-c2ccccn2)nc1 [(3)] | 54% | 13 mm | 40% | 10 mm | 6072 M⁻¹ | 16031 M⁻¹ | 11440 M⁻¹ | 9156 M⁻¹
4 | Oc1ccccc1N=Cc1ccc(N2CCOCC2)cc1 [(HL), 2-(4-morpholinobenzylideneamino)phenol] | 33% | 09 mm | 33% | 09 mm | 2443 M⁻¹ | 4837 M⁻¹ | 5280 M⁻¹ | 3809 M⁻¹
